Data reported in publication PMC8009478, “Novel Curcumin-Diethyl Fumarate Hybrid as a Dualistic GSK-3β Inhibitor/Nrf2 Inducer for the Treatment of Parkinson’s Disease” (ACS Chemical Neuroscience, 2020).

What was measured:
SH-SY5Y cells [1] = assay: t-BuOOH-induced intracellular ROS formation (H2DCF-DA probe); assay type: cell-based, human; conditions: 5 μM for 24 h, then t-BuOOH 100 μM for 30 min
Excerpt: Oxidative stress represents a remarkable pathological feature in NDDs; it is the consequence of an imbalance between the formation of reactive radical species, among others ROS, and the function of many defense antioxidant enzymes. Initially, the potential of compounds 4–7 as indirect antioxidants was investigated[31] by assessing their capability to protect from oxidative stress through prevention of ROS formation upon exposure to tert-butyl hydroperoxide (t-BuOOH). In detail, SH-SY5Y cells were first chronically treated for 24 h (the time necessary to activate the endogenous antioxidant system) with 4–7 (5 μM) and then exposed to 100 μM of t-BuOOH for 30 min; DMF (5 and 10 μM) was employed as the reference compound. Then, the intracellular ROS formation was detected by fluorescent probe 2′-7′-dichlorodihydrofluorescein diacetate (H2DCF-DA).
Figure 3 Antioxidant activity of compounds 4–7 and DMF against t-BuOOH-induced ROS formation in SH-SY5Y cells. Cells were treated with compounds 4–7 (5 μM) and DMF (5 and 10 μM) for 24 h and then with t-BuOOH (100 μM) for 30 min. At the end of treatment, the ROS formation was evaluated by probe H2DCF-DA. Results are expressed as mean ± SEM of at least three independent experiments (* p < 0.05 and ** p < 0.01 vs cells treated with t-BuOOH at one-way ANOVA with the Dunnett post hoc test).
ROS formation was evaluated by using the fluorescent probe H2DCF-DA, as previously described.[43]

SH-SY5Y cells [2] = assay: Intracellular GSH levels (MCB probe); assay type: cell-based, human; conditions: 5 μM; for increase in GSH levels as compared to control: 24 h; for GSH quantity at different times: after 12 and 24 h of treatment (3–24 h studied)
Method: By observing the reduction of ROS levels following a long treatment of the curcumin-DEF hybrids before the treatment with t-BuOOH, we hypothesized that the antioxidant effect might likely result from an increase in levels of GSH. This endogenous antioxidant plays critical roles in protecting cells against oxidative stress damage.[32] Thus, the intracellular GSH levels were analyzed by employing the same experimental conditions used to evaluate the indirect antioxidant effect by fluorescent probe monochlorobimane (MCB). […] For the most promising compounds 4 and 5, the effect on GSH levels at different times (3–24 h) was studied.
Figure 4 Effects of compounds 4–7 and DMF on GSH levels in SH-SY5Y cells. Cells were treated with (A) compounds 4–7 (5 μM) and DMF (5 and 10 μM) for 24 h. (B) Cells were treated with compounds 4 and 5 (5 μM) for different times (3, 6, 12, and 24 h). At the end of the treatment, the GSH levels were evaluated by probe MCB. Results are expressed as mean ± SEM of at least three independent experiments (** p < 0.01 and *** p < 0.001 vs untreated cells at one-way ANOVA with the Dunnett post hoc test).
GSH levels were evaluated by using the fluorescent probe MCB, as previously described.[44]

Nrf2 = Nrf2 nuclear translocation by Western blotting; assay type: cell-based, human; conditions: 5 μM; for nuclear translocation of Nrf2: 1, 3 and 6 h; for treatment time of maximum ratio between nuclear and cytosolic Nrf2 levels: 1, 3 and 6 h tested
Method: (§1) In light of these findings, 4 and 5 emerged as the most promising to be further studied regarding their effect on the Nrf2/ARE pathway. […] The maximum ratio between nuclear and cytosolic Nrf2 levels was detected after a 3 h treatment for both compounds, while a slight reduction was observed after 6 h.
(§2) Figure 5 Effects of compounds 4 and 5 on the Nrf2/ARE signaling pathway (A and B) and NQO1 gene expression (C) in SH-SY5Y cells. (A) Cells were treated with compounds 4 and 5 (5 μM) for different times (1, 3, and 6 h). Translocation of Nrf2 from the cytosol to the nucleus was evaluated by Western blotting. Data are expressed as a ratio between nuclear Nrf2 and cytoplasmic Nrf2 levels and reported as mean ± SEM of at least three independent experiments. (B) Cells were treated with compounds 4 and 5 (5 μM) and DMF (5 μM) for 6 h. The Nrf2/ARE binding activity was determined by an ELISA assay. Results are expressed as fold increase versus untreated cells and reported as mean ± SEM of at least three independent experiments (** p < 0.01 and * p < 0.05 versus untreated cells at the t-test). (C) Cells were treated with compounds 4 and 5 (5 μM) for different times (6, 12, and 24 h). The NQO1 expression was determined by RT-PCR. Results are expressed as the relative normalized expression and reported as mean ± SEM of at least three independent experiments (*** p < 0.001 versus untreated cells at one-way ANOVA with the Dunnett post hoc test).

Nrf2/ARE = Nrf2/ARE binding activity, ELISA (TransAM Nrf2 Kit); assay type: cell-based, human; conditions: 6 h; for Nrf2/ARE binding activity: 5 μM; for Nrf2/ARE effect compared to DMF: compounds and DMF at 5 μM
Method: as §1, §2
The levels of active Nrf2 protein were determined on the nuclear extracts (10 μg, see above) by using the DNA-binding ELISA TransAM Nrf2 Kit (Active Motif), according to the manufacturer’s guidelines. In detail, the kit comprises a primary antibody able to recognize an epitope on Nrf2 protein upon ARE binding. In the treated cells, the amount of active Nrf2 protein is expressed as a fold increase in comparison to the corresponding untreated cells.

NQO1 = NQO1 gene expression by RT-PCR; assay type: cell-based, human; conditions: 5 μM, after 12 and 24 h of treatment
Method: as §2
To further confirm the increase in Nrf2 transcriptional activity upon treatment with 4 and 5, the mRNA levels of NQO1, a Nrf2 target gene, were evaluated in SH-SY5Y cells (Figure 5C). […]

PAMPA-BBB assay = conditions: for prediction (penetration in the CNS): from PAMPA-BBB Pe; for Papp at 2.5 h: pig, PAMPA, pH 7.4

With `CCOC(=O)/C=C/C(C(=O)/C=C/c1ccc(OC)cc1)=C(O)\C=C\c1ccc(OC)cc1` [Compound 4, Ethyl (2E,4Z,6E)-5-Hydroxy-7-(4-methoxyphenyl)-4-((E)-3-(4-methoxyphenyl)acryloyl)hepta-2,4,6-trienoate] the “t-BuOOH-induced intracellular ROS formation” value (SH-SY5Y cells [1]) was “significant reduction”, the “increase in GSH levels as compared to control” value (SH-SY5Y cells [2]) was 4 fold and the “GSH quantity at different times” value (SH-SY5Y cells [2]) was “significant increase”. For the same compound, the “nuclear translocation of Nrf2” value (Nrf2) was “induce the nuclear translocation of Nrf2”, the “treatment time of maximum ratio between nuclear and cytosolic Nrf2 levels” value (Nrf2) was 3 h and the Nrf2/ARE binding activity (Nrf2/ARE) was “increase in Nrf2/ARE binding activity”. For the same compound, the “Nrf2/ARE effect compared to DMF” value (Nrf2/ARE) was “superior effects to DMF”, the “NQO1 mRNA levels” value (NQO1) was “significant ability to increase NQO1 mRNA levels” and the “prediction (penetration in the CNS)” value (PAMPA-BBB assay) was “CNS + (compounds showing a Pe value superior to 2.26 × 10^–6 cm s^–1 could be regarded as able to permeate the brain compartment and thus classified as (CNS +))”. The Papp at 2.5 h (PAMPA-BBB assay) was 2.5 ± 0.3 ×10⁻⁶ cm/s.
With `CCOC(=O)/C=C/C(C(=O)/C=C/c1ccc(OC)cc1)=C(O)\C=C\c1ccc(OCc2ccccc2)cc1` [Compound 5, Ethyl (2E,4Z,6E)-7-(4-(Benzyloxy)phenyl)-5-hydroxy-4-((E)-3-(4-methoxyphenyl)acryloyl)hepta-2,4,6-trienoate] the “t-BuOOH-induced intracellular ROS formation” value (SH-SY5Y cells [1]) was “significant reduction”, the “increase in GSH levels as compared to control” value (SH-SY5Y cells [2]) was 4 fold and the “GSH quantity at different times” value (SH-SY5Y cells [2]) was “significant increase”. The “nuclear translocation of Nrf2” value (Nrf2) was “induce the nuclear translocation of Nrf2”, the “treatment time of maximum ratio between nuclear and cytosolic Nrf2 levels” value (Nrf2) was 3 h and the Nrf2/ARE binding activity (Nrf2/ARE) was “increase in Nrf2/ARE binding activity”. The “Nrf2/ARE effect compared to DMF” value (Nrf2/ARE) was “superior effects to DMF”, the “NQO1 mRNA levels” value (NQO1) was “significant ability to increase NQO1 mRNA levels” and the “prediction (penetration in the CNS)” value (PAMPA-BBB assay) was “CNS + (compounds showing a Pe value superior to 2.26 × 10^–6 cm s^–1 could be regarded as able to permeate the brain compartment and thus classified as (CNS +))”. The Papp at 2.5 h (PAMPA-BBB assay) was 4.8 ± 0.4 ×10⁻⁶ cm/s.
